Results from patent publication US20230365546A1, “5-SUBSTITUTED INDOLE 3-AMIDE DERIVATIVES, PREPARATION METHOD AND USE THEREOF” (ORIGIANT PHARMACEUTICAL CO., LTD, priority 2020, published 2023).

How the values were obtained:
Assay in all cases: Kinase Profiler 10 μM panel
[1] = molecular target: PI3 Kinase (p110a/p85a)(h) (Homo sapiens (Human), UniProt P42336)
Procedure: (§1) The experimental method was as follows: the small molecule compound to be tested (0.001-10 μM), the protein kinase to be tested were incubated with a buffer containing substrate, 10 mM magnesium acetate, and [γ-^33P-ATP], the reaction was started by adding Mg\TPmix, after incubation for a period of time at room temperature, a 3% phosphate solution was added to the buffer to stop the reaction. Subsequently, 10 μL of the reaction mixture was quantitatively pipetted onto P30 filter paper, which was washed three times with 75 mM phosphate solution and then once with methanol. The P30 filter paper was air-dried and scintillation fluid was added for scintillation counting.

[2] = molecular target: PI3 Kinase (p110b/p85a)(h) (Homo sapiens (Human), UniProt P42338)
Procedure: (§2) In vitro kinase assays were conducted using Kinase Profiler services provided by Eurofins. The experimental method was as follows: the small molecule compound to be tested (0.001-10 μM), the protein kinase to be tested were incubated with a buffer containing substrate, 10 mM magnesium acetate, and [γ-^33P-ATP], the reaction was started by adding Mg\TPmix, after incubation for a period of time at room temperature, a 3% phosphate solution was added to the buffer to stop the reaction. Subsequently, 10 μL of the reaction mixture was quantitatively pipetted onto P30 filter paper, which was washed three times with 75 mM phosphate solution and then once with methanol. The P30 filter paper was air-dried and scintillation fluid was added for scintillation counting.

[3] = molecular target: GRK1(h) (Homo sapiens (Human), UniProt Q15835)
Procedure: as §2

[4] = molecular target: GRK2(h) (Homo sapiens (Human), UniProt P25098)
Sequence of GRK2(h) (P25098 whole entry): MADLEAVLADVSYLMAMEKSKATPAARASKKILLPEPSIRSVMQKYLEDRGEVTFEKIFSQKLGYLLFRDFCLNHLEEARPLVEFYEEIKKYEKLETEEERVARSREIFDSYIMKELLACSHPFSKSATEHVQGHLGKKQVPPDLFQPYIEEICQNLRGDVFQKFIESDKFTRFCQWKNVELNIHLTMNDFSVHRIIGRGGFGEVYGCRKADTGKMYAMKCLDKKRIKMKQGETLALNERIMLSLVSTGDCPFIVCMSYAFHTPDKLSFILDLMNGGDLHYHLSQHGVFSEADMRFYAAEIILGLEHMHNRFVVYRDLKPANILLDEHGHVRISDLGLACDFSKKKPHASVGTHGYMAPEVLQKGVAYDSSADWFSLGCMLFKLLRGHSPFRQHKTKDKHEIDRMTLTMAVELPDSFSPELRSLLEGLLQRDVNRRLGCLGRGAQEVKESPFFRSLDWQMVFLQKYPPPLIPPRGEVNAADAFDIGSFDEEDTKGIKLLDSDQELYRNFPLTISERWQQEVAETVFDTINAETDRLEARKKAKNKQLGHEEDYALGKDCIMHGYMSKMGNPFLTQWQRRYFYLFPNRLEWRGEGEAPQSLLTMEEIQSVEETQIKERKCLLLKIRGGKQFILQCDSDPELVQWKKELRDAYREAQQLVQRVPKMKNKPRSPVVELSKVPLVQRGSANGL
Procedure: as §2

[5] = molecular target: PI3 Kinase (p110d/p85a)(m) (Mus musculus (Mouse), UniProt O35904)
Procedure: as §2

[6] = molecular target: ALK4(h) (Homo sapiens (Human), UniProt P36896)
Procedure: as §2

[7] = molecular target: PKCβII(h) (Homo sapiens (Human), UniProt P05771)
Procedure: as §2

[8] = molecular target: IRAK4(h) (Homo sapiens (Human), UniProt Q9NWZ3)
Sequence of IRAK4(h) (Q9NWZ3 whole entry): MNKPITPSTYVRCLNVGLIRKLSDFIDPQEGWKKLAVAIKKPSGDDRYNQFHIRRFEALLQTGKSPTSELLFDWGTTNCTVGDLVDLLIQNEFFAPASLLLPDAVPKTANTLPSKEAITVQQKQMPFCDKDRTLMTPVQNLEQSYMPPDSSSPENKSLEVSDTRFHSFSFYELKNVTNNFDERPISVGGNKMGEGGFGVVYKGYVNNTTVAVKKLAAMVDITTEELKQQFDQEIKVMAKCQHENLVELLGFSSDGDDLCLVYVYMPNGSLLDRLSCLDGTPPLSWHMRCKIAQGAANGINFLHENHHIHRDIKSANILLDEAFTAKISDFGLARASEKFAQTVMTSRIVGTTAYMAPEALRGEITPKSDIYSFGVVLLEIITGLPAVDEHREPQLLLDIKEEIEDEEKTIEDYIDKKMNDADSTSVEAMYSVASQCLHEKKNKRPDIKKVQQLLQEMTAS
Procedure: as §2

[9] = molecular target: JNK1α1(h) (Homo sapiens (Human), UniProt P45983)
Procedure: as §2

[10] = molecular target: CaMKK1(h) (Homo sapiens (Human), UniProt Q8N5S9)
Procedure: as §2

[11] = molecular target: CDK2/cyclinE(h) (Homo sapiens (Human), UniProt P24941)
Procedure: as §2

[12] = molecular target: Ron(h) (Homo sapiens (Human), UniProt Q04912)
Procedure: as §2

[13] = molecular target: Rse(h) (Homo sapiens (Human), UniProt Q06418)
Sequence of Rse(h) (Q06418 41-890): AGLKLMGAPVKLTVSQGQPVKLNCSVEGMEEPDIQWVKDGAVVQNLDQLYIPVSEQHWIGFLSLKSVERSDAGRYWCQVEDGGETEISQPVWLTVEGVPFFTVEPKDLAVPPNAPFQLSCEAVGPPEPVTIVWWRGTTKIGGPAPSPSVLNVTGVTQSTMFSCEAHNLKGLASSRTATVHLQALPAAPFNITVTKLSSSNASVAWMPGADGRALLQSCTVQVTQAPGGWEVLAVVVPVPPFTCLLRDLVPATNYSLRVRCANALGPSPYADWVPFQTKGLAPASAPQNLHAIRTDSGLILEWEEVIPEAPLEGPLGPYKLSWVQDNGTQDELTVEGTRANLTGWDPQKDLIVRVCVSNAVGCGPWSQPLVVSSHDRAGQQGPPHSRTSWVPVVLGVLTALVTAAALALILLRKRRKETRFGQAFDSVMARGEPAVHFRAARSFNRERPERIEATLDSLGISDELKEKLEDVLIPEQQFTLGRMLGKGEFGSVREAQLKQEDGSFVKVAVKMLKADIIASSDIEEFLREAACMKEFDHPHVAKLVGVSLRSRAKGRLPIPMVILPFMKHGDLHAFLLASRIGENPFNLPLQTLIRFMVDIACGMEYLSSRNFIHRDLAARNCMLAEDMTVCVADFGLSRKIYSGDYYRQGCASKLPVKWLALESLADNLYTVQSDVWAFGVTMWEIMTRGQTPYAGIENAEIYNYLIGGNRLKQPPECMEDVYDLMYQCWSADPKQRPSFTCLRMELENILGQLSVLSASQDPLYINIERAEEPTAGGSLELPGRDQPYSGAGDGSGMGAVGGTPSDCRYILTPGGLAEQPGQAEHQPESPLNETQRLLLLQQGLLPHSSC
Procedure: as §2

[14] = molecular target: CDKL3(h) (Homo sapiens (Human), UniProt Q8IVW4)
Procedure: as §2

[15] = molecular target: SAPK2a(h) (Homo sapiens (Human), UniProt Q16539)
Procedure: as §2

[16] = molecular target: SGK2(h) (Homo sapiens (Human), UniProt Q9HBY8)
Procedure: as §2

[17] = molecular target: Met(h) (Homo sapiens (Human), UniProt P08581)
Procedure: as §2

[18] = molecular target: MLK1(h) (Homo sapiens (Human), UniProt P80192)
Procedure: as §2

[19] = molecular target: cKit(V654A)(h) (Homo sapiens (Human), UniProt P10721, V654A)
Procedure: as §2

[20] = molecular target: MLK3(h) (Homo sapiens (Human), UniProt Q16584)
Sequence of MLK3(h) (Q16584 whole entry): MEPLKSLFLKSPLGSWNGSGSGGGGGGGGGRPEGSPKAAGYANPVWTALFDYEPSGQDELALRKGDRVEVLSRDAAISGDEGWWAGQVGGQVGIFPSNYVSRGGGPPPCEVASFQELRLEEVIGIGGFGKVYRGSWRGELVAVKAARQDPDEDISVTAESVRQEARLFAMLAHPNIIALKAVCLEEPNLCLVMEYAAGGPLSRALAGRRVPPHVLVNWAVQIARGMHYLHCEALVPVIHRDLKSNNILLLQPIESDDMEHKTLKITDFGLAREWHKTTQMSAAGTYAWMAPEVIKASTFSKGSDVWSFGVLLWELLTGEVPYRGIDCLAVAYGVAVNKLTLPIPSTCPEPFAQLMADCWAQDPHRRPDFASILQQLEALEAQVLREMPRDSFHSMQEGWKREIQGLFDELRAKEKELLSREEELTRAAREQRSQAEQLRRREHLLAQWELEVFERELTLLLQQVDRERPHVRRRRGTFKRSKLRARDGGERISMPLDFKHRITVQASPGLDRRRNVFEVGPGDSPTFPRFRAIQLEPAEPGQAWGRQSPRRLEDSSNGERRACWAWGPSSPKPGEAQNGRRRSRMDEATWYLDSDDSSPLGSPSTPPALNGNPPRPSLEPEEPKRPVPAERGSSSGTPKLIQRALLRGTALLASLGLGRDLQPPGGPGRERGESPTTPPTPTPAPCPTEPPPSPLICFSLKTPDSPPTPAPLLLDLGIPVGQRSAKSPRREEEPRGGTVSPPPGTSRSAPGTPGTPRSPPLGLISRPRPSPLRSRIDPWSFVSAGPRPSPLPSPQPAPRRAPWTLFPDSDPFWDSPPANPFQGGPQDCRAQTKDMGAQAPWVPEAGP
Procedure: as §1

[21] = molecular target: MOK(h) (Homo sapiens (Human), UniProt Q9UQ07)
Procedure: as §2

[22] = molecular target: MRCKβ(h) (Homo sapiens (Human), UniProt Q9Y5S2)
Procedure: as §2

[23] = molecular target: MRCKγ(h) (Homo sapiens (Human), UniProt Q6DT37)
Procedure: as §2

[24] = molecular target: DDR2(h) (Homo sapiens (Human), UniProt Q16832)
Sequence of DDR2(h) (Q16832 22-855): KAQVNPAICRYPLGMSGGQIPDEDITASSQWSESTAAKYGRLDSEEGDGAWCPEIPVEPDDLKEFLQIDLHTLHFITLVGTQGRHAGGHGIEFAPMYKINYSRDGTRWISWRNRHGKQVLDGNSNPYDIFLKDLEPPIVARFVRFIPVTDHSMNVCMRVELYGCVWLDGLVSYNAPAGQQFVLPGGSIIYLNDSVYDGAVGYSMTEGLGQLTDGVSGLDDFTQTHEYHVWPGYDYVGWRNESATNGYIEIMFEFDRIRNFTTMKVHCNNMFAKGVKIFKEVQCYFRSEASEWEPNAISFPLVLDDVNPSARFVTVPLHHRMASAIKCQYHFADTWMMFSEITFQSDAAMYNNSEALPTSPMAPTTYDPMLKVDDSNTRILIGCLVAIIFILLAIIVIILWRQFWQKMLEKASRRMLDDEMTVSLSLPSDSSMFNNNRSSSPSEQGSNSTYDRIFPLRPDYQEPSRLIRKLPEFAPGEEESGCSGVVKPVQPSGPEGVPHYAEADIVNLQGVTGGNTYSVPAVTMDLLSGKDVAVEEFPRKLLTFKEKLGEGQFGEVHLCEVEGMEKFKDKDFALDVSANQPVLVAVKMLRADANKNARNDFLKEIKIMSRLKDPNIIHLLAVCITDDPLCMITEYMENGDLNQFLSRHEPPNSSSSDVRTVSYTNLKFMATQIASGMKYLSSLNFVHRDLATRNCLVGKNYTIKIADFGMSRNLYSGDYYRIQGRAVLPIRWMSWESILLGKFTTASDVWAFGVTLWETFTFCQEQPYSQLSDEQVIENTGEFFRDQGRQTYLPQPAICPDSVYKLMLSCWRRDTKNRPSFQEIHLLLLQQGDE
Procedure: as §2

[25] = molecular target: DNA-PK(h) (Homo sapiens (Human), UniProt P78527)
Procedure: as §2

[26] = molecular target: DYRK1B(h) (Homo sapiens (Human), UniProt Q9Y463)
Procedure: as §2

[27] = molecular target: TRB2(h) (Homo sapiens (Human), UniProt Q92519)
Procedure: as §2

[28] = molecular target: TrkA(h) (Homo sapiens (Human), UniProt P04629)
Procedure: as §2

[29] = molecular target: EGFR(h) (Homo sapiens (Human), UniProt P00533)
Procedure: as §2

[30] = molecular target: NEK6(h) (Homo sapiens (Human), UniProt Q9HC98)
Sequence of NEK6(h) (Q9HC98 whole entry): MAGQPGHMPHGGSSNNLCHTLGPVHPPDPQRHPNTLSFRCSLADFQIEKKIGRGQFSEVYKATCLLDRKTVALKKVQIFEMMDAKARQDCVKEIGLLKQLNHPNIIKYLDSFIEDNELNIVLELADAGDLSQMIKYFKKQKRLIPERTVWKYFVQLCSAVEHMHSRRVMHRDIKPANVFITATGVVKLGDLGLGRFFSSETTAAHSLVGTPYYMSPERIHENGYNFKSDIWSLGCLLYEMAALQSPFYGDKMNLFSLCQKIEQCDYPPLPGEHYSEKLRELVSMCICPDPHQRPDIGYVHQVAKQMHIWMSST
Procedure: as §2

[31] = molecular target: TSSK4(h) (Homo sapiens (Human), UniProt Q6SA08)
Procedure: as §2

[32] = molecular target: ULK1(h) (Homo sapiens (Human), UniProt O75385)
Procedure: as §2

[33] = molecular target: Yes(h) (Homo sapiens (Human), UniProt P07947)
Procedure: as §2

[34] = molecular target: FGFR3(h) (Homo sapiens (Human), UniProt P22607)
Sequence of FGFR3(h) (P22607 23-806): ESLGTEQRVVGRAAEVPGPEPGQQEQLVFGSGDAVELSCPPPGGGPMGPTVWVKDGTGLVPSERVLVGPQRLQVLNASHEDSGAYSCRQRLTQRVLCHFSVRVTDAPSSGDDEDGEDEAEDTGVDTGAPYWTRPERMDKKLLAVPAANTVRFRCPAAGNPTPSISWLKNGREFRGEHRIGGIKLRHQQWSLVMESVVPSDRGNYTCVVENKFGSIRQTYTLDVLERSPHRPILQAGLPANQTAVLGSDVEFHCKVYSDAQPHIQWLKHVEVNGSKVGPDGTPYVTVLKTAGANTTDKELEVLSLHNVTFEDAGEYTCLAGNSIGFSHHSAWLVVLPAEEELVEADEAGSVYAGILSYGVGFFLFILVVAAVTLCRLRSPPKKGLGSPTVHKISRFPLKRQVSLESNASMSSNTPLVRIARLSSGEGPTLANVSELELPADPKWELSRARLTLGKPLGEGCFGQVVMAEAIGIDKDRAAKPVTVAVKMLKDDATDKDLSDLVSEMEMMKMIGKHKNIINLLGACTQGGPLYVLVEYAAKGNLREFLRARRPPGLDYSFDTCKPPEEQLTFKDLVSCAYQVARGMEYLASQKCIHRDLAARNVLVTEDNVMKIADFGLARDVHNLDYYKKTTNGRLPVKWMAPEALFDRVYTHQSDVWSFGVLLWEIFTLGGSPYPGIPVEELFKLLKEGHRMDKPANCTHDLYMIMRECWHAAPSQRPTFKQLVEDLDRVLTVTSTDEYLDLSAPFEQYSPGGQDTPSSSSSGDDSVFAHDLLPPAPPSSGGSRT
Procedure: as §2

With `C[C@H](NC(=O)c1cn(C)c2ccc(-c3ccn4nc(NC(=O)C5CC5)nc4c3)cc12)c1cccc(F)c1` [Compound 94, (S)-5-(2-(cyclopropanecarboxamido)-[1,2,4]triazolo[1,5-a]pyridin-7-yl)-N-(1-(3-fluorophenyl)ethyl)-1-methyl-1H-indole-3-carboxamide] the Inhibition ratio/% [1] was 3%, the Inhibition ratio/% [2] was −7% and the Inhibition ratio/% [3] was 52%. It also gave an Inhibition ratio/% [4] of 53%, an Inhibition ratio/% [5] of 44% and an Inhibition ratio/% [6] of −18%. For the same compound, the Inhibition ratio/% [7] was 10%, the Inhibition ratio/% [8] was −11% and the Inhibition ratio/% [9] was 53%. It also gave an Inhibition ratio/% [10] of 35%, an Inhibition ratio/% [11] of 36% and an Inhibition ratio/% [12] of 17%. The Inhibition ratio/% [13] was 53%, the Inhibition ratio/% [14] was −5% and the Inhibition ratio/% [15] was 17%. For the same compound, the Inhibition ratio/% [16] was −18%, the Inhibition ratio/% [17] was −29% and the Inhibition ratio/% [18] was 94%. For the same compound, the Inhibition ratio/% [19] was 68%, the Inhibition ratio/% [20] was 102% and the Inhibition ratio/% [21] was −15%. It also gave an Inhibition ratio/% [22] of −4%, an Inhibition ratio/% [23] of 55% and an Inhibition ratio/% [24] of 20%. It also gave an Inhibition ratio/% [25] of 47%, an Inhibition ratio/% [26] of −1% and an Inhibition ratio/% [27] of −5%. It also gave an Inhibition ratio/% [28] of −12%, an Inhibition ratio/% [29] of 10% and an Inhibition ratio/% [30] of 23%. It also gave an Inhibition ratio/% [31] of 49%, an Inhibition ratio/% [32] of 45% and an Inhibition ratio/% [33] of 29%. It also gave an Inhibition ratio/% [34] of 40%.

`C[C@H](NC(=O)c1c[nH]c2ccc(-c3ccc4nc(NC(=O)C5CC5)sc4c3)cc12)c1cccc(F)c1` [Compound 34, (S)-5-(2-(cyclopropanecarboxamido)benzo[d]thiazol-6-yl)-N-(1-(3-fluorophenyl)ethyl)-1H-indole-3-carboxamide] gave an Inhibition ratio [1] of 23%, an Inhibition ratio [2] of 16% and an Inhibition ratio [3] of −24%. The Inhibition ratio [4] was −1%, the Inhibition ratio [5] was 31% and the Inhibition ratio [6] was 3%. The Inhibition ratio [7] was 7%, the Inhibition ratio [8] was 15% and the Inhibition ratio [9] was 15%. It also gave an Inhibition ratio [10] of 74%, an Inhibition ratio [11] of 9% and an Inhibition ratio [12] of 44%. It also gave an Inhibition ratio [13] of 69%, an Inhibition ratio [14] of 51% and an Inhibition ratio [15] of 29%. The Inhibition ratio [16] was 2%, the Inhibition ratio [17] was 95% and the Inhibition ratio [18] was 98%. The Inhibition ratio [19] was −1%, the Inhibition ratio [20] was 101% and the Inhibition ratio [21] was −15%. It also gave an Inhibition ratio [22] of −5%, an Inhibition ratio [23] of −1% and an Inhibition ratio [24] of 76%. It also gave an Inhibition ratio [25] of 24%, an Inhibition ratio [26] of 12% and an Inhibition ratio [27] of 65%. It also gave an Inhibition ratio [28] of 102%, an Inhibition ratio [29] of 19% and an Inhibition ratio [30] of 4%. The Inhibition ratio [31] was 13%, the Inhibition ratio [32] was 11% and the Inhibition ratio [33] was 85%. It also gave an Inhibition ratio [34] of 35%.
